Results on 16 molecules are retold here after patent publication US9382254B2, “Compounds and pharmaceutical compositions thereof for the treatment of cystic fibrosis” (Galapagos NV, priority 2013, dated 2016).

Like-named read-outs stand apart in the source and are kept apart here.

One may read the EC50 as the concentration needed to bring the measured effect to its halfway point.

Format in all cases: cell-based
In one assay the target is T1, CFTR ΔF508 mutant (Homo sapiens, UniProt P13569, DEL508-508).
T1 construct: expressed in transfected cells; host or cells: CFBE41o- (adenoviral transduction)
T1 sequence (P13569 with tags, fused parts or gaps DEL508-508): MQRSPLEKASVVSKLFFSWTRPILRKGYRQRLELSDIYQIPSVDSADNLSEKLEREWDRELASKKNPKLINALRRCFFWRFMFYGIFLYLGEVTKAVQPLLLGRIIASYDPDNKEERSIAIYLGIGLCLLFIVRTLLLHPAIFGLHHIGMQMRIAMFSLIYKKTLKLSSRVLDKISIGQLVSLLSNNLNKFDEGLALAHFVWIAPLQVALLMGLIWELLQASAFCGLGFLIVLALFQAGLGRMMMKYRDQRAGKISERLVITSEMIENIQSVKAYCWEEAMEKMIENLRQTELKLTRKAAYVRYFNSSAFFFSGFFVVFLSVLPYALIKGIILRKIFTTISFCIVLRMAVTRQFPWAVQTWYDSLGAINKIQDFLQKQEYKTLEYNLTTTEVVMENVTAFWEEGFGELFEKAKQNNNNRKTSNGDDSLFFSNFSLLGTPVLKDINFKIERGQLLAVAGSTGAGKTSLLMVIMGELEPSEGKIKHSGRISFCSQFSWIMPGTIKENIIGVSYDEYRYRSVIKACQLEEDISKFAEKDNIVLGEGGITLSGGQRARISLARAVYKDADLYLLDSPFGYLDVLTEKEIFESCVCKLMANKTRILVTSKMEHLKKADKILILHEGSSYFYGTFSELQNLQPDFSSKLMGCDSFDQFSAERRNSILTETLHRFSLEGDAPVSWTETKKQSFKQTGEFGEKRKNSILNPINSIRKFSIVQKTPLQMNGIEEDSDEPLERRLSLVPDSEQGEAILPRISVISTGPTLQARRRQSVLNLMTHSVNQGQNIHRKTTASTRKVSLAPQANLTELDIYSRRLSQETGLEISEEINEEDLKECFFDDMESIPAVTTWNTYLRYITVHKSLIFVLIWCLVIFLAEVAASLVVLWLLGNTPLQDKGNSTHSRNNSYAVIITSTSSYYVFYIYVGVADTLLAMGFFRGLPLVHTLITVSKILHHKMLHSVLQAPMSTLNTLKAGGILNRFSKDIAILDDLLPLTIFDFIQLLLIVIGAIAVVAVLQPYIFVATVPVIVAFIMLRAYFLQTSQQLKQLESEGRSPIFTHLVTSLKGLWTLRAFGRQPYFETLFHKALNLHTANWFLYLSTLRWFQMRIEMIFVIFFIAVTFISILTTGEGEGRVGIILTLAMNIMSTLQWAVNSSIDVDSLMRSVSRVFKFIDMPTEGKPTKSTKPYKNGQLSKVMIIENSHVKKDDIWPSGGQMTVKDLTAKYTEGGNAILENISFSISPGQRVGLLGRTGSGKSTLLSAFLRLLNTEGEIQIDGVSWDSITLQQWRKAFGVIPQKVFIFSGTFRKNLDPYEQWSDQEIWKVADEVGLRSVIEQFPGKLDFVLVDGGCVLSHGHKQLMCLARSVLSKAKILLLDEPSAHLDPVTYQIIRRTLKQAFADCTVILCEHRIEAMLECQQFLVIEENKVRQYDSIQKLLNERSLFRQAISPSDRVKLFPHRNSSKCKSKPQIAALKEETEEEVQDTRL
The assay can be described thus: YFP-halide influx assay for the CFTR-ΔF508 mutation (384 well, FDSS/μCell). As to conditions: CFBE41o- cells, CFTR-ΔF508, 1×D-PBS, fluorescence after 36 seconds. The procedure, abridged:
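Potentiator read-out as 1−F/F0, F taken 36 s after iodide addition, EC50 fitted against compound concentration. Cells: CFBE41o- expressing ΔF508 CFTR plus halide-sensitive YFP via adenovirus, rescued by 27 °C for 24 h or 24 h modulator at 37 °C.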

Another assay deals with T2, CFTR G551D mutant (Homo sapiens, UniProt P13569, G551D).
T2 construct: expressed in transfected cells; host or cells: HEK293 (reverse transfection with plasmid)
T2 sequence (P13569 whole entry G551D): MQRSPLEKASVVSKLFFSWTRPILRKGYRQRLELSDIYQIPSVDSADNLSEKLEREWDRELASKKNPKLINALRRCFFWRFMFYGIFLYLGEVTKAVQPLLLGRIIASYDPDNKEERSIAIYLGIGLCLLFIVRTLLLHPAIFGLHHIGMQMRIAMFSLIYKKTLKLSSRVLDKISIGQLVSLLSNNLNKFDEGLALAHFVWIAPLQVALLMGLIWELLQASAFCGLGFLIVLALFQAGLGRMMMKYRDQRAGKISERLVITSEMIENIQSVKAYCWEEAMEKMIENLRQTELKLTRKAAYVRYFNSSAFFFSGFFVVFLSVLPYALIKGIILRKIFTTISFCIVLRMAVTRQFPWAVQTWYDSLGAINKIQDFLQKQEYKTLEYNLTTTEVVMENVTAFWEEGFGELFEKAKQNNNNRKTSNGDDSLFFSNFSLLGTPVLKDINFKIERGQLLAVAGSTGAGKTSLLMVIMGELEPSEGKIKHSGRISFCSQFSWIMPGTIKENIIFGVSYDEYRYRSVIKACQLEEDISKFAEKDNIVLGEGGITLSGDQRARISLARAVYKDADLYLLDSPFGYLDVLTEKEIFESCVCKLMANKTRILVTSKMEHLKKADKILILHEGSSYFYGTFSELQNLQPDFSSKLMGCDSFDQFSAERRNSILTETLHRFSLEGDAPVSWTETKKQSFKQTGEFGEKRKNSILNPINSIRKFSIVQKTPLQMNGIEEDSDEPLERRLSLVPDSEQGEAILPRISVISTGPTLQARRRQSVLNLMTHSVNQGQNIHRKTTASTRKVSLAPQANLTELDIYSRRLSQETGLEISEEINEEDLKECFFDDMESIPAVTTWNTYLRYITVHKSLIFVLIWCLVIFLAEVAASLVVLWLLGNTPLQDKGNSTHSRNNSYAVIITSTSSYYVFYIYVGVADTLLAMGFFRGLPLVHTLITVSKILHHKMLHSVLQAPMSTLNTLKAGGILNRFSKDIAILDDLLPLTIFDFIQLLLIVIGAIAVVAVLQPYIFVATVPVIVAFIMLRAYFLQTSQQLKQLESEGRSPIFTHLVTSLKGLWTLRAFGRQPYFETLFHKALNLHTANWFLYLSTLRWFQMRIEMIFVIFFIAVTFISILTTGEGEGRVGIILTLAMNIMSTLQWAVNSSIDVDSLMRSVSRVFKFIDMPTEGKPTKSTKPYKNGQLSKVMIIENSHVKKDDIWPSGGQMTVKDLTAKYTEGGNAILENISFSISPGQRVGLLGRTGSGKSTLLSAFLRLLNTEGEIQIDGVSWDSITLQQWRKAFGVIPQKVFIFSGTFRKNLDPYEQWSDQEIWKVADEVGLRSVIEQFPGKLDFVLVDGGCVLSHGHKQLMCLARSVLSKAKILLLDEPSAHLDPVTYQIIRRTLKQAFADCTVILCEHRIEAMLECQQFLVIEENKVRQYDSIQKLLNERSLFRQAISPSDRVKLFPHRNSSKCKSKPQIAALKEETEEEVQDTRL
Description: YFP-halide influx assay for the CFTR-G551D mutation. Conditions: HEK293 cells, forskolin 10.67 μM. A digest of the protocol: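 HEK293 cells reverse-transfected with CFTR G551D and YFP H148Q/I152L/F47L halide sensor, expressed 24 h at 37 °C. Iodide-induced fluorescence quench recorded 7 s after I− injection; response = 1−F/F0, with EC50 from plot against compound concentration.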

In another assay the target is T3, CFTR-G178R (Homo sapiens, UniProt P13569, G178R).
T3 construct: expressed in transfected cells
T3 sequence (P13569 whole entry G178R): as the sequence (P13569 whole entry G551D) above, with G178R, D551G counted along it
The assay can be described thus: YFP-halide influx assay for the CFTR-G178R. The source says:
(§1) The YFP halide influx assay measures the functionality of the cystic fibrosis Transmembrane Conductance regulator (CFTR) channels. The assay is used to evaluate the capacity of compounds to increase the channel opening of existing mutant CFTR channels in the membrane. It makes use of the observation that the yellow fluorescent protein (YFP) variant YFP H148Q, I152L, […] has its fluorescence substantially quenched by halide ions like Cl^− and I^−. (Galietta, Haggie, & Verkman, 2001)
(§2) For this purpose, HEK293-cells are seeded in 96 well plates. During seeding, the cells are reverse-transfected with plasmid vectors that direct the expression of the CFTR G551D mutant and of the YFP reporter. Cells are incubated at 37° C., 5% CO2 for 24 hours so as to allow for sufficient expression of the CFTR protein.
(§3) The I^−-induced quenching of fluorescence is recorded immediately after injection of I^− for 7 seconds. The capacity of a compound to increase the channel opening is directly correlated with the decrease in fluorescence, and is expressed as (1-(fluorescence after 7 seconds (F)/fluorescence before injection (F0))) and an EC50 can be derived from a (1-F/F0) vs compound concentration plot.
(§4) Similar YHA assays were developed for other channel gating defective or channel conductance defective CFTR mutants to determine effect of compound on channel activity. Examples of mutants are G178R, G1349D, S549N, R117H, R334W. This assay is also used for additional class I CFTR mutants, including G542X, W1282X; class II mutants including N1303K, and for class III mutants including S1251N.

The next assay deals with T4, CFTR-G1349D (Homo sapiens, UniProt P13569, G1349D).
T4 construct: expressed in transfected cells
T4 sequence (P13569 whole entry G1349D): as the sequence (P13569 whole entry G551D) above, with D551G, G1349D counted along it
Description: YFP-halide influx assay for the CFTR-G1349D.
From the text: as §1, §2, §3, §4

The next assay deals with T5, CFTR-S549N (Homo sapiens, UniProt P13569, S549N).
T5 construct: expressed in transfected cells
T5 sequence (P13569 whole entry S549N): as the sequence (P13569 whole entry G551D) above, with S549N, D551G counted along it
The assay can be described thus: YFP-halide influx assay for the CFTR-S549N.
From the text: as §1, §2, §3, §4

Another assay deals with T6, CFTR-R117H (Homo sapiens, UniProt P13569, R117H).
T6 construct: expressed in transfected cells
T6 sequence (P13569 whole entry R117H): as the sequence (P13569 whole entry G551D) above, with R117H, D551G counted along it
The assay can be described thus: YFP-halide influx assay for the CFTR-R117H.
From the text: as §1, §2, §3, §4

As to `COc1cc(C)cc(S(=O)(=O)c2cc(C(N)=O)c(NC(=O)C(C)(C)O)s2)c1` [Compound 416, 2-[(2-hydroxy-2-methyl-propanoyl)amino]-5-(3-methoxy-5-methyl-phenyl)sulfonyl-thiophene-3-carboxamide], the EC50 at CFTR ΔF508 mutant is 0.0177 µM; at CFTR G551D mutant it was 0.773 µM; at CFTR-G178R, 0.268 µM; at CFTR-G1349D, 0.353 µM; at CFTR-S549N, 1.78 µM; at CFTR-R117H, 0.351 µM.
Regarding `CC(C)(O)C(=O)Nc1sc(S(=O)(=O)c2cnc(C(F)(F)F)nc2)cc1C(N)=O` [Compound 394, 2-[(2-hydroxy-2-methyl-propanoyl)amino]-5-[2-(trifluoromethyl)pyrimidin-5-yl]sulfonyl-thiophene-3-carboxamide], the concentration for a half-maximal effect (EC50) on CFTR ΔF508 mutant was 0.354 µM; on CFTR G551D mutant (class symbol) it was > 1 µM; at CFTR-G178R it was 3.33 µM; on CFTR-G1349D, 3.33 µM; at CFTR-S549N (class symbol), > 1 µM; at CFTR-R117H, 3.31 µM.
Take `CC(C)(O)C(=O)Nc1sc(S(=O)(=O)c2nc(Cl)ccc2C(F)(F)F)cc1C(N)=O` [Compound 424, 5-[[6-chloro-3-(trifluoromethyl)-2-pyridyl]sulfonyl]-2-[(2-hydroxy-2-methyl-propanoyl)amino] thiophene-3-carboxamide]: the EC50 is 0.00319 µM at CFTR ΔF508 mutant; 0.403 µM at CFTR G551D mutant; 0.178 µM on CFTR-G178R; 2.43 µM on CFTR-G1349D; 0.332 µM on CFTR-S549N; 0.0973 µM on CFTR-R117H.
Turning to `CC(C)(O)C(=O)Nc1sc(S(=O)(=O)c2ccc(OC(F)(F)F)cn2)cc1C(N)=O` [Compound 374, 2-[(2-hydroxy-2-methyl-propanoyl)amino]-5-[[5-(trifluoromethoxy)-2-pyridyl]sulfonyl] thiophene-3-carboxamide], the EC50 on CFTR ΔF508 mutant came to 0.0583 µM; at CFTR G551D mutant, 1.33 µM; at CFTR-G178R it was 0.61 µM; at CFTR-G1349D it was 0.807 µM; at CFTR-S549N it was 1.83 µM; at CFTR-R117H, 0.365 µM.
For the molecule `CC(C)c1nn(C)cc1S(=O)(=O)c1cc(C(N)=O)c(NC(=O)C(C)(C)O)s1` [Compound 421, 2-[(2-hydroxy-2-methyl-propanoyl)amino]-5-(3-isopropyl-1-methyl-pyrazol-4-yl)sulfonyl-thiophene-3-carboxamide], the EC50 on CFTR ΔF508 mutant amounted to 0.069 µM; on CFTR G551D mutant, 5.53 µM; on CFTR-G178R, 1.59 µM; on CFTR-G1349D it was 1.54 µM; on CFTR-S549N, 1.11 µM; on CFTR-R117H, 1.93 µM.
On to `COc1ccc(C(F)(F)F)c(S(=O)(=O)c2cc(C(N)=O)c(NC(=O)C(C)(C)O)s2)n1` [Compound 420, 2-[(2-hydroxy-2-methyl-propanoyl)amino]-5-[[6-methoxy-3-(trifluoromethyl)-2-pyridyl]sulfonyl] thiophene-3-carboxamide], for which the EC50 on CFTR ΔF508 mutant stood at 0.00805 µM; at CFTR G551D mutant, 0.197 µM; at CFTR-G178R it was 0.11 µM; at CFTR-G1349D, 0.095 µM; at CFTR-S549N, 0.146 µM; at CFTR-R117H it was 0.0972 µM.
For `CC(C)(O)C(=O)Nc1sc(S(=O)(=O)c2cc(Cl)ccc2OC(F)F)cc1C(N)=O` [Compound 401, 5-[5-chloro-2-(difluoromethoxy)phenyl] sulfonyl-2-[(2-hydroxy-2-methyl-propanoyl)amino] thiophene-3-carboxamide], the EC50 on CFTR ΔF508 mutant came out at 0.00653 µM; at CFTR G551D mutant it was 0.126 µM; at CFTR-G178R, 0.105 µM; at CFTR-G1349D, 0.0493 µM; on CFTR-S549N, 0.0914 µM; at CFTR-R117H it was 0.0865 µM.
Turning to `CC(C)(O)C(=O)Nc1sc(S(=O)(=O)c2ncc(C(F)(F)F)cc2F)cc1C(N)=O` [Compound 410, 5-[[3-fluoro-5-(trifluoromethyl)-2-pyridyl]sulfonyl]-2-[(2-hydroxy-2-methyl-propanoyl)amino] thiophene-3-carboxamide], the EC50 on CFTR ΔF508 mutant came to 0.0141 µM; at CFTR G551D mutant it was 0.708 µM; on CFTR-G178R, 0.0801 µM; on CFTR-G1349D, 0.12 µM; at CFTR-S549N, 0.104 µM; at CFTR-R117H it was 0.139 µM.
With `CC(C)(O)C(=O)Nc1sc(S(=O)(=O)c2ccc(C(F)(F)F)cn2)cc1C(N)=O` [Compound 363, 2-[(2-hydroxy-2-methyl-propanoyl)amino]-5-[[5-(trifluoromethyl)-2-pyridyl]sulfonyl]thiophene-3-carboxamide], the EC50 stood at 0.0285 µM on CFTR ΔF508 mutant; 0.491 µM at CFTR G551D mutant; 0.069 µM at CFTR-G178R; 0.32 µM on CFTR-G1349D; 0.221 µM at CFTR-S549N; 0.0906 µM on CFTR-R117H.
With `NC(=O)c1cc(S(=O)(=O)c2ccc(OC(F)(F)F)cc2F)sc1NC(=O)C1(CO)CC1` [Compound 435, 5-[2-fluoro-4-(trifluoromethoxy)phenyl] sulfonyl-2-[[1-(hydroxymethyl)cyclopropanecarbonyl]amino] thiophene-3-carboxamide], the EC50 at CFTR ΔF508 mutant amounted to 0.0165 µM; at CFTR G551D mutant, 1.92 µM; at CFTR-G178R, 0.0338 µM; on CFTR-G1349D, 0.117 µM; at CFTR-S549N, 0.242 µM; at CFTR-R117H it was 0.173 µM.
On to `CC(C)(O)C(=O)Nc1sc(S(=O)(=O)c2nc(C(F)(F)F)ccc2C(F)(F)F)cc1C(N)=O` [Compound 412, 5-[[3,6-bis(trifluoromethyl)-2-pyridyl]sulfonyl]-2-[(2-hydroxy-2-methyl-propanoyl)amino] thiophene-3-carboxamide], for which the EC50 was 0.00357 µM on CFTR ΔF508 mutant; 0.0964 µM on CFTR G551D mutant; 0.0111 µM at CFTR-G178R; 0.00747 µM on CFTR-G1349D; 0.0113 µM on CFTR-S549N; 0.0354 µM at CFTR-R117H.
Consider `CC(C)(O)C(=O)Nc1sc(S(=O)(=O)c2ccc(OC(F)F)cc2)cc1C(N)=O` [Compound 380, 5-[4-(difluoromethoxy)phenyl] sulfonyl-2-[(2-hydroxy-2-methyl-propanoyl)amino] thiophene-3-carboxamide], for which the EC50 is 0.0176 µM at CFTR ΔF508 mutant; 0.45 µM on CFTR G551D mutant; 0.107 µM on CFTR-G178R; 0.276 µM at CFTR-G1349D; 0.387 µM at CFTR-S549N; 0.144 µM at CFTR-R117H.
As for `CC(C)(O)C(=O)Nc1sc(S(=O)(=O)c2ccc(C(F)(F)F)nc2)cc1C(N)=O` [Compound 389, 2-[(2-hydroxy-2-methyl-propanoyl)amino]-5-[[6-(trifluoromethyl)-3-pyridyl]sulfonyl] thiophene-3-carboxamide], the EC50 on CFTR ΔF508 mutant is 0.0463 µM; at CFTR G551D mutant, 0.813 µM; at CFTR-G178R, 0.0915 µM; at CFTR-G1349D, 0.204 µM; at CFTR-S549N, 0.531 µM; on CFTR-R117H, 0.247 µM.
For the molecule `CC(C)(O)C(=O)Nc1sc(S(=O)(=O)c2cccc(C(F)(F)F)n2)cc1C(N)=O` [Compound 427, 2-[(2-hydroxy-2-methyl-propanoyl)amino]-5-[[6-(trifluoromethyl)-2-pyridyl]sulfonyl] thiophene-3-carboxamide], the EC50 on CFTR ΔF508 mutant was 0.042 µM; on CFTR G551D mutant, 2.23 µM; at CFTR-G178R, 0.67 µM; on CFTR-G1349D, 0.438 µM; on CFTR-S549N, 1.02 µM; on CFTR-R117H, 1.35 µM.
Take `CC(O)C(=O)Nc1sc(S(=O)(=O)c2cc(F)ccc2CC(F)(F)F)cc1C(N)=O` (centres unmarked) [Compound 334, 5-[5-fluoro-2-(2,2,2-trifluoroethyl)phenyl] sulfonyl-2-(2-hydroxypropanoylamino) thiophene-3-carboxamide]: the EC50 was 0.0037 µM at CFTR ΔF508 mutant; 0.15 µM on CFTR G551D mutant; 0.0445 µM on CFTR-G178R; 0.0477 µM on CFTR-G1349D; 0.336 µM at CFTR-S549N; 0.118 µM at CFTR-R117H.
`Cc1c(S(=O)(=O)c2ccc(OC(F)(F)F)cc2)sc(NC(=O)C(C)(C)O)c1C(N)=O` [Compound 437, 2-[(2-hydroxy-2-methyl-propanoyl)amino]-4-methyl-5-[4-(trifluoromethoxy)phenyl]sulfonyl-thiophene-3-carboxamide]: the EC50 is 0.00624 µM on CFTR ΔF508 mutant; > 1 µM on CFTR G551D mutant (class symbol); > 1 µM at CFTR-G1349D (class symbol); 0.121 µM on CFTR-S549N; 0.264 µM on CFTR-R117H.
